{"source": "BindingDB's records for doi:10.7270/Q2Q52N1X", "about": "(Vanderbilt Screening Center for GPCRs, Ion Channels and …, 2009)"}
{"molecular_target": "T1, Solute carrier family 12 member 5 (Homo sapiens, UniProt Q9H2X9)", "T1 sequence (Q9H2X9 whole entry)": "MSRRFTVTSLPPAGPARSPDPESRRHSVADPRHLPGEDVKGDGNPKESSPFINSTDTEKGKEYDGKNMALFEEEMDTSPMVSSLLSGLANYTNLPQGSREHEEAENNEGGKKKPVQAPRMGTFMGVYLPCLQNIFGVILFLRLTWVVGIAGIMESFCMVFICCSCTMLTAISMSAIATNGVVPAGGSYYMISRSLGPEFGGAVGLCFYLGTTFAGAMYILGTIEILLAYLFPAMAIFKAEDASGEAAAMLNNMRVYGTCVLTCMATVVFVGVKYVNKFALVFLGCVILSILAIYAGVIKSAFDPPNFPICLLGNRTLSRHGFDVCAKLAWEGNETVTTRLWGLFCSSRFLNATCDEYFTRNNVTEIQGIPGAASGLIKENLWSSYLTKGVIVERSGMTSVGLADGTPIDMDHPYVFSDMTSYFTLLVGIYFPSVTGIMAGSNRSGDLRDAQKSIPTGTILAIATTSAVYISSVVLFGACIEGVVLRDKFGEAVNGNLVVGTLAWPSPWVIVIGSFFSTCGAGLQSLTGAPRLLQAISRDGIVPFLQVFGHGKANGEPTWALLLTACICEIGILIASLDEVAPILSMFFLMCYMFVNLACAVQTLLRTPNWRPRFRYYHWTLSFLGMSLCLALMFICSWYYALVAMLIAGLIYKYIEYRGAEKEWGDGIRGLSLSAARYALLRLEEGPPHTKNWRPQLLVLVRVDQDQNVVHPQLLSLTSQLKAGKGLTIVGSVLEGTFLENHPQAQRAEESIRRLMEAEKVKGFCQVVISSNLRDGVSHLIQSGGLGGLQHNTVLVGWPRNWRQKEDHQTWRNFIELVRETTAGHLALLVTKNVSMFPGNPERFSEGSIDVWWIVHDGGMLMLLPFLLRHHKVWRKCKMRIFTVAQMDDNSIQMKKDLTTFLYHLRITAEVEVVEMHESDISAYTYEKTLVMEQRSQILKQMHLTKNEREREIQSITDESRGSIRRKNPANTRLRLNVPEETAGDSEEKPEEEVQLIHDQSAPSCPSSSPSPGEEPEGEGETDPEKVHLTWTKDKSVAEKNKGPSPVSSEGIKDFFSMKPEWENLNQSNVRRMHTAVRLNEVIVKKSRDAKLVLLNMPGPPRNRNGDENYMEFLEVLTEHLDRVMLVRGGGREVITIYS", "test": "KCC2 modulator potency by thallium flux, dose response, cell-based, HEK293 KCC2, FluoZin-2 fluorescence (AID 1736)", "details": "not given", "units": {"EC50": "µM"}}
{"smiles": "NC(=S)NN=C1C(=O)N(Cc2ccc(F)cc2)c2ccccc21", "note": "[1-[(Z)-[1-[(4-fluorophenyl)methyl]-2-oxidanylidene-indol-3-ylidene]amino]thiourea]", "EC50": 38}
{"smiles": "NC(=S)NN=C1C(=O)N(Cc2ccccc2)c2ccccc21", "note": "[1-[(Z)-[2-oxidanylidene-1-(phenylmethyl)indol-3-ylidene]amino]thiourea]", "EC50": 0.618}
{"smiles": "O=C(C1CC1)N1CCc2cc(S(=O)(=O)NC3CCN(Cc4ccccc4)CC3)ccc21", "note": "[1-[cyclopropyl(oxo)methyl]-N-[1-(phenylmethyl)-4-piperidinyl]-2,3-dihydroindole-5-sulfonamide]", "EC50": 22.7}
{"smiles": "O=C(NN=Cc1ccc(OCc2ccccc2)cc1)c1cc[n+](Cc2ccccc2)cc1", "note": "[1-benzyl-4-({2-[4-(benzyloxy)benzylidene]hydrazino}carbonyl)pyridinium chloride]", "EC50": 563}
{"smiles": "O=C(CSc1ccc(-c2ccccc2)nn1)c1ccccc1", "note": "[1-phenyl-2-(6-phenylpyridazin-3-yl)sulfanyl-ethanone]", "EC50": 0.862}
{"smiles": "CC1CCN(C(=O)c2ccc(SCc3ccccc3F)c([N+](=O)[O-])c2)CC1", "note": "[1-{4-[(2-fluorobenzyl)thio]-3-nitrobenzoyl}-4-methylpiperidine]", "EC50": 1.94}
{"smiles": "O=C(c1ccc(S(=O)(=O)c2cccc(Cl)c2)c([N+](=O)[O-])c1)N1CCN(c2ccccn2)CC1", "note": "[1-{4-[(3-chlorophenyl)sulfonyl]-3-nitrobenzoyl}-4-pyridin-2-ylpiperazine]", "EC50": 3.61}
{"smiles": "O=C(NN=Cc1ccc(Cl)s1)C1COc2ccccc2O1", "note": "(stereo not given) [2,3-Dihydro-benzo[1,4]dioxine-2-carboxylic acid [1-(5-chloro-thiophen-2-yl)-meth-(Z)-ylidene]-hydrazide]", "EC50": 32.7}
{"smiles": "COc1cc(C=NNC(=O)CN(Cc2ccccc2)S(=O)(=O)c2ccc3c(c2)OCCO3)ccc1O", "note": "[2,3-Dihydro-benzo[1,4]dioxine-6-sulfonic acid benzyl-(4-hydroxy-3-methoxy-benzylidene-hydrazinocarbonylmethyl)-amide]", "EC50": 3.15}
{"smiles": "O=C(NC(=S)Nc1nc(-c2cccc([N+](=O)[O-])c2)cs1)c1cc(Cl)ccc1Cl", "note": "[2,5-bis(chloranyl)-N-[[4-(3-nitrophenyl)-1,3-thiazol-2-yl]carbamothioyl]benzamide]", "EC50": 34.7}
{"smiles": "Cc1ccc(C)c(C(=O)NC(C)CCc2ccccc2)c1", "note": "(stereo not given) [2,5-dimethyl-N-(1-methyl-3-phenyl-propyl)benzamide]", "EC50": 3.82}
{"smiles": "CCn1nnnc1SCC(=O)Nc1nc(-c2cccs2)cs1", "note": "[2-(1-Ethyl-1H-tetrazol-5-ylsulfanyl)-N-(4-thiophen-2-yl-thiazol-2-yl)-acetamide]", "EC50": 1.97}
{"smiles": "Cn1c(CSc2nc3ccccc3s2)nc2ccccc21", "note": "[2-(1-Methyl-1H-benzoimidazol-2-ylmethylsulfanyl)-benzothiazole]", "EC50": 12.4}
{"smiles": "C=CCNc1oc(Cc2cccc3ccccc23)nc1C#N", "note": "[2-(1-naphthalenylmethyl)-5-(prop-2-enylamino)-4-oxazolecarbonitrile]", "EC50": 12.1}
{"smiles": "O=C(CN1C(=O)NC2(CCCC2)C1=O)Nc1nc(-c2ccc(F)cc2)cs1", "note": "[2-(2,4-diketo-1,3-diazaspiro[4.4]nonan-3-yl)-N-[4-(4-fluorophenyl)thiazol-2-yl]acetamide]", "EC50": 0.231}
{"smiles": "N#Cc1nc(-c2ccco2)oc1N1CCN(Cc2ccccc2)CC1", "note": "[2-(2-furanyl)-5-[4-(phenylmethyl)-1-piperazinyl]-4-oxazolecarbonitrile]", "EC50": 4.59}
{"smiles": "CCc1ccc(C(=O)COC(=O)c2cc([N+](=O)[O-])ccc2NCCO)cc1", "note": "[2-(2-hydroxyethylamino)-5-nitro-benzoic acid [2-(4-ethylphenyl)-2-keto-ethyl] ester]", "EC50": 5.45}
{"smiles": "O=C(COC(=O)c1cc([N+](=O)[O-])ccc1NCCO)c1ccccc1", "note": "[2-(2-hydroxyethylamino)-5-nitro-benzoic acid phenacyl ester]", "EC50": 41.9}
{"smiles": "O=C(Cn1nc2ccccc2n1)NN=Cc1cc(Cl)cc([N+](=O)[O-])c1O", "note": "[2-(2H-1,2,3-benzotriazol-2-yl)-N'-{5-chloro-2-hydroxy-3-nitrobenzylidene}acetohydrazide]", "EC50": 28.4}
{"smiles": "Cc1cc(C)c(C#N)c(N2CCN(Cc3ccccc3)CC2)n1", "note": "[2-(4-benzyl-1-piperazinyl)-4,6-dimethylnicotinonitrile]", "EC50": 19.4}
{"smiles": "O=C(Cn1nc(-c2ccccc2)ccc1=O)NCc1ccc2c(c1)OCO2", "note": "[2-(6-keto-3-phenyl-pyridazin-1-yl)-N-piperonyl-acetamide]", "EC50": 1.33}
{"smiles": "O=C(Cn1cnc2c(nnn2-c2ccccc2)c1=O)NCCc1ccccc1", "note": "[2-(7-keto-3-phenyl-triazolo[4,5-d]pyrimidin-6-yl)-N-phenethyl-acetamide]", "EC50": 1.17}
{"smiles": "O=C(COC(=O)c1cc([N+](=O)[O-])ccc1NCc1ccccc1)NC1CCCCC1", "note": "[2-(benzylamino)-5-nitro-benzoic acid [2-(cyclohexylamino)-2-keto-ethyl] ester]", "EC50": 4.56}
{"smiles": "O=C(O)c1cc([N+](=O)[O-])ccc1NCc1ccccc1", "note": "[2-(benzylamino)-5-nitro-benzoic acid]", "EC50": 4.96}
{"smiles": "O=[N+]([O-])c1ccc(CSc2nnc(SCc3ccccc3)s2)cc1", "note": "[2-(benzylthio)-5-[(4-nitrobenzyl)thio]-1,3,4-thiadiazole]", "EC50": 11.2}
{"smiles": "O=c1c2ccccc2c(-c2nnc(S)o2)nn1Cc1ccccc1", "note": "[2-(phenylmethyl)-4-(2-sulfanylidene-3H-1,3,4-oxadiazol-5-yl)-1-phthalazinone]", "EC50": 3.27}
{"smiles": "COc1ccc(S(=O)(=O)N2CCC(C(=O)N3CCc4ccccc4C3)CC2)cc1C", "note": "[2-({1-[(4-methoxy-3-methylphenyl)sulfonyl]-4-piperidinyl}carbonyl)-1,2,3,4-tetrahydroisoquinoline]", "EC50": 14.4}
{"smiles": "Cn1nccc1C(=O)OCC(=O)Nc1nc(-c2ccccc2)cs1", "note": "[2-Methyl-2H-pyrazole-3-carboxylic acid (4-phenyl-thiazol-2-ylcarbamoyl)-methyl ester]", "EC50": 10.9}
{"smiles": "COc1ccc(OC)c(-n2nnnc2SCC(=O)NCCc2ccccc2)c1", "note": "[2-[1-(2,5-Dimethoxy-phenyl)-1H-tetrazol-5-ylsulfanyl]-N-phenethyl-acetamide]", "EC50": 242}
{"smiles": "O=C(CSc1nnnn1-c1ccc(Cl)cc1)N1CCc2ccccc2C1", "note": "[2-[1-(4-chlorophenyl)tetrazol-5-yl]sulfanyl-1-(3,4-dihydro-1H-isoquinolin-2-yl)ethanone]", "EC50": 3.26}
{"smiles": "O=C1Nc2ccc([N+](=O)[O-])cc2OC1CCN1CCN(Cc2ccccc2)CC1", "note": "(stereo not given) [2-[2-(4-benzylpiperazin-1-yl)ethyl]-7-nitro-4H-1,4-benzoxazin-3-one]", "EC50": 15.1}
{"smiles": "NC(=O)COc1ccccc1/C=C1/SC(=O)N(CC(=O)N2CCc3ccccc3C2)C1=O", "note": "[2-[2-({3-[2-(3,4-dihydro-2(1H)-isoquinolinyl)-2-oxoethyl]-2,4-dioxo-1,3-thiazolidin-5-ylidene}methyl)phenoxy]acetamide]", "EC50": 16.5}
{"smiles": "CCc1ccc(Nc2nnc(SCC(=O)Nc3sccc3C(N)=O)s2)cc1", "note": "[2-[2-[[5-[(4-ethylphenyl)amino]-1,3,4-thiadiazol-2-yl]sulfanyl]ethanoylamino]thiophene-3-carboxamide]", "EC50": 6.01}
{"molecular_target": "T1, Solute carrier family 12 member 5", "test": "KCC2 modulator potency by thallium flux, dose response, cell-based, HEK293 KCC2, FluoZin-2 fluorescence (AID 1736)", "details": "inactive by the depositor's call", "units": {"EC50": "µM"}}
{"smiles": "O=C(CN1C(=O)NC(Cc2ccccc2)C1=O)NC(=O)NC1CCCCC1", "note": "(stereo not given) [2-(4-benzyl-2,5-diketo-imidazolidin-1-yl)-N-(cyclohexylcarbamoyl)acetamide]", "EC50": 69.9}
{"smiles": "Cc1cccc(N2CCN(C(=O)Cn3ccc4ccccc4c3=O)CC2)c1C", "note": "[2-[2-[4-(2,3-dimethylphenyl)-1-piperazinyl]-2-oxoethyl]-1-isoquinolinone]", "EC50": 260}
